pIC50, pKi: −log10 of the molar value. Like-named read-outs stand apart in the source and are kept apart here.
What was measured:
[1] = tested on: uptake of serotonine by human blood platelets; test: Inhibition of the uptake of serotonine by human blood platelets; format: cell-based; details: for pIC50: Platelet, read-out: Inhibition of the Uptake of serotonine I50; for times less effective than its epimer as inhibitor of serotonine uptake: Example 7 vs Example 1, Example 9 vs Example 3
Description: It is known that the uptake of serotonine by the blood platelets is a good model or indication of the uptake of this amine by neurons [see J. TUOMISTO, J. Pharm., Pharmac., 26 92 (1974)]. When it is applied to the investigation of medicaments, a method which brings into play the blood platelets presents great interest because it makes it possible to use human cells, which enables the method to give a good anticipation of the effect of the products on human beings.
(§1) The capacity of the products for inhibiting the uptake of serotonine or for causing its release has been shown on human blood platelets according to J. L. DAVID et al. "Platelets Function and Thrombosis, a Review of Methods" p. 335 (Plenum Press, London, 1972).
(a) Inhibition of the uptake of serotonine
The results are expressed by a 50% inhibiting dose I50, which represents the product dose in micromoles per liter reducing the uptake of serotonine by 50%.

[2] = tested on: release of serotonine by human blood platelets; test: Release of serotonine from human blood platelets; format: cell-based; details: for activation at 5 µM / activation at 50 µM: Homo sapiens, Platelet, read-out: Percentage of increase of the release of serotonine; for release of serotonine compared with p-chloro amphetamine, in words / release of serotonine, in words: human blood platelets
Description: as §1
(b) Release of serotonine
The action of the products on the release of serotonine has been tested at two concentrations: 5×10^-6 mole per liter and 5×10^-5mole per liter.
The results obtained are expressed by a percentage of increase of the release of serotonine in comparison with the results obtained with the controls.

[3] = Acute toxicity (LD50) in mice; details: mouse, in vivo
Description: The acute toxicities and symptomatologies of the compounds according to the present invention have been determined on CD1 (Charles River) male mice by I.V. and oral methods. The LD50's were calculated, after 3 days of observation, by the cumulative method of J. J. Reed & H. Muench, Amer. J. Hyg., 27, 493, 1938, which is relied on herein and the disclosure incorporated by reference.

[4] = tested on: ventricular arrhythmia caused by aconitine; test: animal or person; details: Rattus norvegicus, iv, read-out: ED50 I.V., dose increasing by 50% the perfusion time of aconitine
[5] = in vivo; details: rat, iv
[6] = tested on: benzodiazepine receptors in rat brain membranes; test: Inhibition of specific ^3 H-diazepam binding to rat brain membranes; details: for pKi: read-out: Ki, Inhibition of Specific ^3 H-Diazepam Binding To Rat Brain Membranes, rat brain membranes, ^3 H-diazepam
[7] = tested on: uptake of serotonine by synaptosomes of the rat's brain; test: Inhibition of the uptake of serotonine by synaptosomes of the rat's brain; format: biochemical; details: in vitro, read-out: 50% inhibiting dose I50, uptake of serotonine by synaptosomes
[8] = tested on: 5-HTP-induced quivering; test: Potentiation test of 5-hydroxytryptophan (5-HTP), quivering in mice; format: in vivo, CD1 (Charles River) male mice; details: for ED50: Mus musculus, sc, read-out: ED 50, dose giving an average indication of quivering equal to 1; for inherent effect (in the absence of 5-HTP): dose of 25 mg/kg, control product groups
Description: (2) Potentialing Effect of 5-HTP:
It is known that the administration of 5-HTP parenterally in mice causes, with large doses, a characteristic behavior, i.e. quivering, torsions of the trunk, displacement of the rear legs, shaking of the head and increased general motility. To show a potentiating power with respect to 5-HTP, the present inventors have therefore used to advantage one of the characteristic properties of the precursor of serotonine, i.e. quivering. The procedure used is inspired by that of C. […] Groups of 8 male mice were used. The chronological order of the test was as follows for the groups treated with both 5-HTP and the products according to the invention.
At time t=30 min., the product to the tested was injected subcutaneously (S.C.) in the form of a 9% aqueous solution of NaCl.
At time t=75 min., the quivering in each animal was measured using the following scale:
1=quivering of average intensity
The chronological order was the same for the "control 5-HTP" and "control product" groups except that, in the first case, a 9% aqueous solution of NaCl was injected in the S.C. manner instead of the product solution and, in the second case, a 9% aqueous solution of NaCl was injected in the I.P. manner instead of the 5-HTP solution. The "control product" groups received the same doses of the tested product as the groups treated with both 5-HTP and the product in order to discover any possible effect inherent in the product.
The number of points for each group was totalled and the average indication of quivering was determined.

[9] = tested on: vasoconstriction of the nasal mucous membrane; test: Vascular action: potentiation of the vascular effects of serotonine in anaesthetized dog; format: in vivo
Description: The potentiation of the vascular effects of serotonine is shown according to the procedure of J. J. Loux, Arch. […] The modified method consists in injecting into the carotid of an anaesthetized dog increasing and cumulated doses of serotonine. […] This increase was measured by connecting the nasal sinus, hermetically isolated from outside, with a pressure gauge.

[10] = tested on: sleep induced by serotonine; test: Potentiation of sleep induced by serotonine in chickens; format: in vivo, chicken
Description: The role of the cerebral serotonine in sleep is a well-known fact as reported by M. Jouvet and Coll., C. R. Acad. Sc.
Groups of 12 chickens were used, to which were administered intravenously serotonine at a dosage level of 0.1 mg/kg.

[11] = tested on: ventricular arrhythmia caused by aconitine; details: aconitine test, rats
[12] = po, Table 6, P.O., mice, 3 days of observation, read-out: LD50 P.O.
[13] = iv, I.V., Table 4 (toxicity; species not given), read-out: LD50 I.V.
[14] = 5 × 10^-5 mole per liter, in comparison with controls
[15] = 5 × 10^-6 mole per liter, in comparison with controls

SMILES	pIC50 ([1]; Homo sapiens)	activation at 5 µM [2]	activation at 50 µM [2]	LD50 at 72 h [3, 12]	LD50 at 72 h [3, 13]	ED50 [4]	selectivity ratio [5]	pKi [6]	further results
CC(N)Cc1ccc(Cl)cc1 (stereo not drawn) [p-Chloro amphetamine, p-chloro amphetamine, reference compound]	4.92	6%	51%	–	–	–	–	–	–
C=C[C@@H]1CNCC[C@H]1CCCc1ccnc2ccc(OC)cc12 [Example 7, 4(R)-[3-(6-methoxy 4-quinolyl)propyl]3(S)-vinyl piperidine]	6.00	40%	78%	225 mg/kg	–	–	–	–	times less effective than its epimer as inhibitor of serotonine uptake ([1]; human blood platelets): 100 times; release of serotonine compared with p-chloro amphetamine, in words [2]: even more effective than p-chloro amphetamine; release of serotonine, in words [2]: powerful agents for the release of serotonine
CC(C)N(CCC(C(N)=O)(c1ccccc1)c1ccccn1)C(C)C (stereo not drawn) [Disopyramide, reference compound]	–	–	–	–	26 mg/kg	4 mg/kg	6.5	–	–
CN(C)CCCN1c2ccccc2CCc2ccccc21 [Imipramine, reference compound]	6.40	3%	13%	–	–	–	–	–	Ki, Inhibition of Specific ^3 H-Diazepam Binding To Rat Brain Membranes [6]: inactive
C=C[C@H]1CNCC[C@H]1CCCc1ccnc2ccccc12 [Example 2, 4(R)-[3-(4-quinolyl)propyl] 3(R)-vinyl piperidine]	–	–	–	525 mg/kg	30 mg/kg	12 mg/kg	2.5	5.60	pIC50 [7]: 7.46; ED50 ([8]; product S.C., 5-HTP 150 mg/kg I.P., male mice): 12 mg/kg; inherent effect (in the absence of 5-HTP) [8]: did not have any inherent effect
NCCc1c[nH]c2ccc(O)cc12 [serotonine, reference compound]	–	–	–	–	–	–	–	–	minimal effective dose ([9]; Canis lupus familiaris, serotonine into the carotid, increasing and cumulated doses, read-out: dose from which an increase of the total volume of sinus was observed): ≥ 0.0002 mg/kg; chickens sent to sleep ([10]; serotonine 0.1 mg/kg I.V. alone): 25%
C=C[C@H]1C[N@@]2CC[C@H]1C[C@@H]2[C@@H](O)c1ccnc2ccc(OC)cc12 [Quinidine, reference compound]	–	–	–	–	70 mg/kg	7.5 mg/kg	9.3	–	–
CC[C@@H]1CNCC[C@H]1CCCc1ccnc2ccc(OC)cc12 [Example 9, 4(R)-[3-(6-methoxy 4-quinolyl)propyl]3(S)-ethyl piperidine]	–	–	–	200 mg/kg	–	–	–	5.30	pIC50 ([1]; human blood platelets): 7.00; times less effective than its epimer as inhibitor of serotonine uptake ([1]; human blood platelets): ≥ 10 times; activation at 50 µM [2, 14]: 69%; activation at 5 µM [2, 15]: 30%; release of serotonine compared with p-chloro amphetamine, in words [2]: even more effective than p-chloro amphetamine; release of serotonine, in words [2]: powerful agents for the release of serotonine
C=C[C@H]1CNCC[C@H]1CCCc1ccnc2ccc(OC)cc12 [Example 1, 4(R)-[3-(6-methoxy 4-quinolyl)propyl] 3(R)-vinyl piperidine]	8.00	7%	32%	600 mg/kg	30 mg/kg	2 mg/kg	–	–	potentiation of vascular effect of serotonine (pressure decrease measured by the gauge) ([9]; 1 μg/kg I.V., 0.05 μg/kg of serotonine): twice greater; chickens sent to sleep ([10]; product of Example 1 at 3 mg/kg I.V. + serotonine 0.1 mg/kg I.V.): 60%; antiarythmic effectiveness compared with quinidine and disopyramide, in words [11]: more effective than the reference products (quinidine and disopyramide); ED50 [8]: 14 mg/kg; inherent effect (in the absence of 5-HTP) [8]: did not have any inherent effect
CC[C@H]1CNCC[C@H]1CCCc1ccnc2ccccc12 [Example 5, 4(R)-[3-(4-quinolyl)propyl] 3(R)-ethyl piperidine]	–	–	–	600 mg/kg	22 mg/kg	2.3 mg/kg	9.6	5.10	antiarythmic effectiveness compared with quinidine and disopyramide, in words [11]: more effective than the reference products (quinidine and disopyramide)
CC[C@H]1CNCC[C@H]1CCCc1ccnc2ccc(OC)cc12 [Example 3, 4(R)-[3-(6-methoxy 4-quinolyl)propyl] 3(R)-ethyl piperidine]	–	–	–	600 mg/kg	21 mg/kg	0.7 mg/kg	30	5.35	pIC50 ([1]; human blood platelets): 8.00; antiarythmic effectiveness compared with quinidine and disopyramide, in words [11]: more effective than the reference products (quinidine and disopyramide); pIC50 [7]: 8.10; activation at 50 µM [2, 14]: 67%; activation at 5 µM [2, 15]: 34%; release of serotonine compared with p-chloro amphetamine, in words [2]: even more effective than p-chloro amphetamine; release of serotonine, in words [2]: powerful agents for the release of serotonine
c1ccc2c(CCCC3CCNCC3)ccnc2c1 [Example 4, 4-[3-(4-quinolyl)propyl]piperidine]	–	–	–	600 mg/kg	42 mg/kg	15 mg/kg	2.8	5.46	–

— US4237139A, “4-(3-(4-Quinolyl)propyl)piperidines, their preparation and their use as medicines” (Pharmindustrie, priority 1976, dated 1980)
